Laboratory results taken from ChEMBL document CHEMBL3232846, “Synthesis and discovery of highly functionalized mono- and bis-spiro-pyrrolidines as potent cholinesterase enzyme inhibitors” (Bioorg Med Chem Lett, 2014).

Columns and labels:
Acetylcholinesterase = Acetylcholinesterase (Electrophorus electricus, UniProt O42275); test: Inhibition of electric eel AChE using acetylthiocholine iodide as substrate preincubated for 15 mins by spectrophotometer analysis
Cholinesterase = Cholinesterase (Equus caballus, UniProt P81908); test: Inhibition of equine serum BChE using S-butyrylthiocholine chloride as substrate preincubated for 15 mins by spectrophotometer analysis
Sequence of Cholinesterase (P81908 whole entry): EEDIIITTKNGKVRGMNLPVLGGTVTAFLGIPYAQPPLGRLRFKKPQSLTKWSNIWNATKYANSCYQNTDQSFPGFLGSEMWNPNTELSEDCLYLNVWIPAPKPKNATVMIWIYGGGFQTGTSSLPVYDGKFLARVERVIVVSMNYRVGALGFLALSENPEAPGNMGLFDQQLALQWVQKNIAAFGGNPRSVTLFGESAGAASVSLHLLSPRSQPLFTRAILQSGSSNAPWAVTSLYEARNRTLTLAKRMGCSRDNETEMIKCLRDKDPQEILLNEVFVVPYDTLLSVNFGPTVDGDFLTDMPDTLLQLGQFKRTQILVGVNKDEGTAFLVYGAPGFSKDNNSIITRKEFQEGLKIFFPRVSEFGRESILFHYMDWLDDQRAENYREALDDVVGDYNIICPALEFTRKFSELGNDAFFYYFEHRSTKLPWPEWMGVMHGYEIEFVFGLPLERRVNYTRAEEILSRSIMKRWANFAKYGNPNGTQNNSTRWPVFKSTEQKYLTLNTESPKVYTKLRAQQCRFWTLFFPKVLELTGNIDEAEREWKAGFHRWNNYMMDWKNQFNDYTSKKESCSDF

[1] = Selectivity ratio of IC50 for equine serum BChE to IC50 for electric eel AChE
[2] = Selectivity ratio of IC50 for electric eel AChE to IC50 for equine serum BChE

Sequence of Acetylcholinesterase (O42275 whole entry): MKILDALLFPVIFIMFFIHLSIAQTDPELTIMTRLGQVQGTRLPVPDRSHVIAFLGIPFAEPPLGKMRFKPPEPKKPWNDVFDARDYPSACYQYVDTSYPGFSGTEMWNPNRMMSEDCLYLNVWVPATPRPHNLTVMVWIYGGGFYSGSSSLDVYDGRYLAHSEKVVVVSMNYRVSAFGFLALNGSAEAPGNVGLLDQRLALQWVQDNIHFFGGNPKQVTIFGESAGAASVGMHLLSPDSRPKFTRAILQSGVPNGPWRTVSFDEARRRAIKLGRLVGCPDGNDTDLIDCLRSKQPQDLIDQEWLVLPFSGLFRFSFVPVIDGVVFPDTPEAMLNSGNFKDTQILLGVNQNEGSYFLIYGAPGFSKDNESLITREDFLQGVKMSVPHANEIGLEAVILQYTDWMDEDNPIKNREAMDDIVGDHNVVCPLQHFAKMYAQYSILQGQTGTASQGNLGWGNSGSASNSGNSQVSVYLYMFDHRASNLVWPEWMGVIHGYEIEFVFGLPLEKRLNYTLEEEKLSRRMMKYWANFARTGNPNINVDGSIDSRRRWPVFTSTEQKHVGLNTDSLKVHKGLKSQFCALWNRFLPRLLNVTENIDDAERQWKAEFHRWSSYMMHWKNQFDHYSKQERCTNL

Structure (SMILES) | IC50 (Acetylcholinesterase) | IC50 (Cholinesterase) | Ratio IC50 [1] | Ratio IC50 [2]
O=C(C1CC(c2ccccc2)NC12C(=O)Nc1ccccc12)N1C/C(=C\c2ccccc2)C(=O)C2(C1)C(c1ccccc1)C(c1ccccc1)NC21C(=O)Nc2ccccc21 (racemic) | 20.8 µM | 26.3 µM | 1.27 | 0.79
C=CC(=O)N1C/C(=C\c2cccc3ccccc23)C(=O)C2(C1)C(c1cccc3ccccc13)C(c1ccccc1)NC21C(=O)Nc2ccccc21 (racemic) | 2.07 µM | 13.8 µM | 6.65 | 0.15
O=C(C1CC(c2ccccc2)NC12C(=O)Nc1ccccc12)N1C/C(=C\c2ccccc2Cl)C(=O)C2(C1)C(c1ccccc1Cl)C(c1ccccc1)NC21C(=O)Nc2ccccc21 (racemic) | 11.3 µM | 17.6 µM | 1.56 | 0.64
O=C(C1CC(c2ccccc2)NC12C(=O)Nc1ccccc12)N1C/C(=C\c2ccc(Cl)cc2Cl)C(=O)C2(C1)C(c1ccc(Cl)cc1Cl)C(c1ccccc1)NC21C(=O)Nc2ccccc21 (racemic) | 8.61 µM | 26.3 µM | 3.06 | 0.33
O=C(C1CC(c2ccccc2)NC12C(=O)Nc1ccccc12)N1C/C(=C\c2cccc([N+](=O)[O-])c2)C(=O)C2(C1)C(c1cccc([N+](=O)[O-])c1)C(c1ccccc1)NC21C(=O)Nc2ccccc21 (racemic) | 16.8 µM | 17.6 µM | 1.05 | 0.95
C=CC(=O)N1C/C(=C\c2ccc(C)cc2)C(=O)C2(C1)C(c1ccc(C)cc1)C(c1ccccc1)NC21C(=O)Nc2ccccc21 (racemic) | 14.6 µM | 5.87 µM | 0.4 | 2.48
C=CC(=O)N1C/C(=C\c2ccccc2C)C(=O)C2(C1)C(c1ccccc1C)C(c1ccccc1)NC21C(=O)Nc2ccccc21 (racemic) | 10.2 µM | 21.8 µM | 2.13 | 0.47
C=CC(=O)N1C/C(=C\c2ccc(Cl)cc2Cl)C(=O)C2(C1)C(c1ccc(Cl)cc1Cl)C(c1ccccc1)NC21C(=O)Nc2ccccc21 (racemic) | 6.16 µM | 27.1 µM | 4.4 | 0.23
C=CC(=O)N1C/C(=C\c2ccccc2OC)C(=O)C2(C1)C(c1ccccc1OC)C(c1ccccc1)NC21C(=O)Nc2ccccc21 (racemic) | 5.57 µM | 17.5 µM | 3.14 | 0.32
O=C(C1CC(c2ccccc2)NC12C(=O)Nc1ccccc12)N1C/C(=C\c2ccc(Cl)cc2)C(=O)C2(C1)C(c1ccc(Cl)cc1)C(c1ccccc1)NC21C(=O)Nc2ccccc21 (racemic) | 12.3 µM | 27.8 µM | 2.25 | 0.44
C=CC(=O)N1C/C(=C\c2ccccc2F)C(=O)C2(C1)C(c1ccccc1F)C(c1ccccc1)NC21C(=O)Nc2ccccc21 (racemic) | 2.27 µM | 11.8 µM | 5.18 | 0.19
O=C(C1CC(c2ccccc2)NC12C(=O)Nc1ccccc12)N1C/C(=C\c2ccccc2F)C(=O)C2(C1)C(c1ccccc1F)C(c1ccccc1)NC21C(=O)Nc2ccccc21 (racemic) | 7.45 µM | 35.9 µM | 4.81 | 0.21
C=CC(=O)N1C/C(=C\c2ccc(F)cc2)C(=O)C2(C1)C(c1ccc(F)cc1)C(c1ccccc1)NC21C(=O)Nc2ccccc21 (racemic) | 5.98 µM | 2.75 µM | 0.46 | 2.17
Cc1ccc(/C=C2\CN(C(=O)C3CC(c4ccccc4)NC34C(=O)Nc3ccccc34)CC3(C2=O)C(c2ccc(C)cc2)C(c2ccccc2)NC32C(=O)Nc3ccccc32)cc1 (racemic) | 20.2 µM | 19.8 µM | 0.98 | 1.02
O=C(C1CC(c2ccccc2)NC12C(=O)Nc1ccccc12)N1C/C(=C\c2ccc(F)cc2)C(=O)C2(C1)C(c1ccc(F)cc1)C(c1ccccc1)NC21C(=O)Nc2ccccc21 (racemic) | 21.9 µM | 14.4 µM | 0.66 | 1.51
C=CC(=O)N1C/C(=C\c2ccccc2)C(=O)C2(C1)C(c1ccccc1)C(c1ccccc1)NC21C(=O)Nc2ccccc21 (racemic) | 4.57 µM | 12.3 µM | 2.69 | 0.37
C=CC(=O)N1C/C(=C\c2cccc([N+](=O)[O-])c2)C(=O)C2(C1)C(c1cccc([N+](=O)[O-])c1)C(c1ccccc1)NC21C(=O)Nc2ccccc21 (racemic) | 15.1 µM | 10.6 µM | 0.7 | 1.43
Cc1ccccc1/C=C1\CN(C(=O)C2CC(c3ccccc3)NC23C(=O)Nc2ccccc23)CC2(C1=O)C(c1ccccc1C)C(c1ccccc1)NC21C(=O)Nc2ccccc21 (racemic) | 30.5 µM | 29.1 µM | 0.95 | 1.05
C=CC(=O)N1C/C(=C\c2ccccc2Cl)C(=O)C2(C1)C(c1ccccc1Cl)C(c1ccccc1)NC21C(=O)Nc2ccccc21 (racemic) | 1.68 µM | 22.2 µM | 13.2 | 0.08
COc1ccccc1/C=C1\CN(C(=O)C2CC(c3ccccc3)NC23C(=O)Nc2ccccc23)CC2(C1=O)C(c1ccccc1OC)C(c1ccccc1)NC21C(=O)Nc2ccccc21 (racemic) | 9.15 µM | 32.1 µM | 3.51 | 0.28
C=CC(=O)N1C/C(=C\c2ccc(Cl)cc2)C(=O)C2(C1)C(c1ccc(Cl)cc1)C(c1ccccc1)NC21C(=O)Nc2ccccc21 (racemic) | 4.61 µM | 8.75 µM | 1.9 | 0.53
O=C(C1CC(c2ccccc2)NC12C(=O)Nc1ccccc12)N1C/C(=C\c2cccc3ccccc23)C(=O)C2(C1)C(c1cccc3ccccc13)C(c1ccccc1)NC21C(=O)Nc2ccccc21 (racemic) | 9.24 µM | 19.2 µM | 2.08 | 0.48
